The text below walks through data of patent publication US10463646B2, “Micellar polymer-flavonoid conjugate nanocomplex” (Agency for Science, Technology and Research, priority 2014, dated 2019).

For data set [1] the following is noted: 0.05 M phosphate-buffered saline (PBS) (pH 7.4) at 37° C.; cited from earlier work.
For data set [2] the following is noted: rat; cited from earlier work.
A short description of data set [3]: Body weight in the ACHN xenograft oral study. Conditions: oral gavage daily. It counts as in vivo, mouse. As for the experimental part: (§1) To study the toxicity and therapeutic effect, in vivo studies were conducted on the micellar nanocomplexes. A subcutaneous renal cell carcinoma model was established. Adult female Balb/c athymic, immunoincompetent nude mice (average weight=19 g, age=6-8 weeks) were used.
To investigate the therapeutic effect of SU/PEG-mEGCG MNC via oral administration, a xenograft tumor model was established by inoculating 4×10^6 ACHN cells suspended in 100 μl of PBS and 100 μl of Matrigel (BD Bioscience) subcutaneously into the root of the right thigh of the mouse. Once the tumors reached a volume of 200 mm^3, the animals were divided into four groups for oral gavage of various solutions (n=8 per group) daily for 5 weeks: control (citrate buffer pH5), SU/PEG-mEGCG 8:1 (SU at 15 mg/kg), SU at 15 and 40 mg/kg. Tumors were measured twice weekly with a digital caliper, and the tumor volumes (mm^3) were calculated from the following formula: volume=(length×width^2)/2 (FIGS. 16 and 17).

Data set [4] is described as follows: Body weight / toxicity in the A498-luc xenograft study. It counts as in vivo, mouse. As for the experimental part: as §1
To study the therapeutic effect of SU/PEG-EGCG micellar nanocomplexes by intravenous injection, a xenograft tumor model was established by inoculating 6×10^6 A498-luc cells subcutaneously into the root of the left thigh of the mouse. On day 6 after tumor inoculation, the animals were divided into four groups for tail vein injection of various solutions (n=8 per group) twice weekly for 5 weeks, while one group received daily SU gavaging at 60 mg/kg. For the tail vein injection, a volume of 200 μl of sample solution was used.
To monitor bioluminescent signals from A498-luc cells, isoflurane gas-anesthetized animals were injected intraperitoneally with 200 μl of D-luciferin (5 mg ml^−1, Promega) in PBS, and placed on a warmed stage (30° C.) inside the camera box of the IVIS imaging system (Xenogen, Alameda, Calif., USA) with a CCD camera. […] Images and measurements of luminescent signals were acquired and analyzed with the Xenogen imaging software v3.2 and quantified as photons/s. Tumor size and body weight were measured on a weekly basis. […]

As to `O=C(O[C@@H]1Cc2c(O)cc(O)cc2O[C@@H]1c1cc(O)c(O)c(O)c1)c1cc(O)c(O)c(O)c1` [EGCG, (−)-Epigallocatechin-3-gallate], the half-life result in data set [1] is reported as “less than 30 minutes”. For the same compound, in data set [2], the “effect of EGCG administration on plasma concentrations of SU” value is given as “markedly reduced”.

Take `CCN(CC)CCNC(=O)c1c(C)[nH]c(/C=C2\C(=O)Nc3ccc(F)cc32)c1C` [SU, Sunitinib]: the weight loss result in data set [3] (SU at 15 mg/kg) is reported as “not observed”. In addition, the body weight result is given as “significant weight loss” in data set [3] (SU at 40 mg/kg) and “significant weight loss” in data set [4] (daily oral gavage 60 mg/kg, one week after commencement of treatment). For the same compound, in data set [4] (mouse, in vivo, po, 60 mg/kg/day), the “toxicity of oral dose” value is listed as “too toxic”.
